For test [1], the system named is RAW264.7 cells co-cultured with PC-3-KQ cells. Kind of test: Osteoclast differentiation in co-culture of RAW264.7 and PC-3-KQ cells. Type of test: cell-based. The settings on record: 1.25, 2.5, 5 μM, 7 days. As for the experimental part:
The third in vitro assay involved direct co-culture between RAW264.7 cells and cancer cells. RAW264.7 cells were seeded in 96-well plates at 700 cells per well and allowed to adhere for 12 h. PC-3-KQ cells were added to each well at 300 cells/well, and the culture continued for 12 h. NTZ was added to treat cells for 48 h at various final concentrations (0, 1.25, 2.5, 5 μM). The RAW264.7 medium was mixed with the PC-3 medium at 7:3, and the mixture was used to replace the culture medium every 2 days. After 7 days, the osteoclast differentiation was determined as described above.

The target of another test is T1, KLF5^K369Q protein (Homo sapiens, UniProt Q13887, K369Q).
T1 construct: made in house; host or cells: E. coli BL21 DE3
T1 sequence (Q13887 whole entry K369Q): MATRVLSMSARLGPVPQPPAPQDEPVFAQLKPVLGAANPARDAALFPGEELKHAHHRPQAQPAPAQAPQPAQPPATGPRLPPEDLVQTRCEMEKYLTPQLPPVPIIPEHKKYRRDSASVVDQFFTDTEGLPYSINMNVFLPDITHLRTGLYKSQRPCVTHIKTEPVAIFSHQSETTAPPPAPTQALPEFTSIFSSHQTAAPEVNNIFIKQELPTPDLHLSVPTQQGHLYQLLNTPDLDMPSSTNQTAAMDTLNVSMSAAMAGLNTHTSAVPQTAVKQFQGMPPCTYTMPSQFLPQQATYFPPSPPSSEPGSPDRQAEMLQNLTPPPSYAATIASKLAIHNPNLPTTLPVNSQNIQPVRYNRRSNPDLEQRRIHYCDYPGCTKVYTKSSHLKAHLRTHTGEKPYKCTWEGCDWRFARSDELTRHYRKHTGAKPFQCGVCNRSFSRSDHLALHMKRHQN
Kind of test: Fluorescence titration (quenching) of KLF5 protein. The note with it: read-out: binding constant Kd. As for the experimental part:
(§1) Wild-type or mutant KLF5 protein at 1 μM in 2 mL PBS was measured for fluorescence spectrum using a fluorescence spectrometer (HORIBA, Kyoto, Japan), and the fluorescence spectra were obtained for wavelengths of 300–500 nm. NTZ with various concentration ranges and various increments were used in the analysis, including 0.1–1 μM with an increment of 0.1 μM, 1–5 μM with an increment of 0.5 μM, 5–10 μM with an increment of 1 μM, and 10–30 μM with an increment of 5 μM. The incubation with NTZ was for 5 s at room temperature. Data were processed and fitted to obtain the binding affinities using the Origin software (OriginLab, Northampton, MA, USA), and Kd values were determined by the responses at […] wavelength.

Another test has as its target T2, KLF5^K369R protein (Homo sapiens, UniProt Q13887, K369R).
T2 construct: made in house; host or cells: E. coli BL21 DE3
Kind of test: Fluorescence titration (quenching) of KLF5 protein. The note with it: read-out: binding constant Kd. As for the experimental part: as §1

The test system of a further test is MMP9. Kind of test: MMP9 immunohistochemical staining of bone metastases. Type of test: in vivo, Balb/c nude mice. The note with it: KLF5^K369Q-induced bone metastases. As for the experimental part:
Immunohistochemical staining was conducted following established procedures. Briefly, 4-μm sections of bone tissues were deparaffinized in xylene and rehydrated in gradient ethanol. The endogenous antigen was retrieved by incubating slides in 10 mM sodium citrate buffer (Cat #: C1010, Solarbio, Beijing, China) overnight in an oven at 65°C. After antigen retrieving, tissue sections were incubated with 3% hydrogen peroxide at room temperature for 10 min to block the endogenous […] activity. They were then incubated in a blocking solution (0.1% albumin bovine V mixed with 10% goat serum) for 40 min, and a solution containing a primary antibody (MMP9, 1:1000, Cat #: ab76003, Abcam, Cambridge, UK; MYBL2, 1:100, Cat #: ab76009, Abcam) for 1.5 h. After rinsing with PBS for 3 times, slides were incubated with the secondary antibody solution for 15 min and then with the DAB solution using the MaxVision II HRP kit (Cat #: KIT-5920, MXB Biotechnologies, Fuzhou, China). Nuclei were counterstained with hematoxylin for 2 min. Slides were then dehydrated with gradient ethanol (75–100%) and xylene and mounted with coverslips using the quick-hardening mounting medium. All slides were scanned using an Aperio VERSA 8 Scanner System (Leica, Wetzlar, Germany) and analyzed using the Image J software (Image J 1.48v, NIH, Bethesda, MD, USA).

The subject of another test is PC-3-KQ cells. The experiment in a line: 3D spheroid invasion assay and screening of FDA-approved drugs. Type of test: cell-based, human. The note with it: Homo sapiens; for activity at 0.01 µM / activity at 0.1 µM / activity at 1 µM / activity at 10 µM: 72 h, compared to vehicle control, read-out: Invasion rates (%) of each drug’s multiple concentrations. An outline of the steps:
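Cells were clustered into spheroids by centrifugation and grown 3 days, then embedded in matrigel-medium containing drug on day 4 and cultured another 3 days. Drugs were screened at 10 μM first, then at 0–10 μM, in duplicate wells. Invasion area is total area minus core sphere area from phase-contrast images.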

The test system of another test is RAW264.7 cells. Kind of test: RANKL-induced osteoclast differentiation, TRAP staining. Format: cell-based. The settings on record: RANKL 50 ng/mL. As to the method: Three different culture systems were used for the in vitro osteoclast differentiation assay. In the first one, RAW264.7 cells were seeded onto 96-well plates at 1 × 10^3 cells/well and cultured overnight. Cells were then stimulated with recombinant mouse RANKL (Cat #: CR06, Novoprotein, Shanghai, China) at 50 ng/mL in the presence or absence of various concentrations of NTZ (0, 6.25, 12.5, 25 μM). […] Cells were then fixed in 4% paraformaldehyde for 10 min, rinsed with prewarmed deionized water, and stained with tartrate-resistant acid phosphatase (TRAP) using a kit from Sigma-Aldrich (Cat #: A387) to visualize osteoclasts (≥ 3 nuclei/cell). The effect of NTZ on osteoclast differentiation was determined by counting the number of multinucleated cells using the Image J software (Image J 1.48v).

Setting [2] is: secondary screening of 87 hit compounds (Table S1).
[3] abbreviates: third screening of 25 hit compounds (Table S2).

Read-outs that look alike come from different tables or passages of the source.

For orientation: Kd means a measure of binding affinity in units of concentration. By inhibition is commonly meant the change of the read-out against control, counted positive when it falls.

T2 sequence (Q13887 whole entry K369R): as the sequence (Q13887 whole entry K369Q) above, with Q369R counted along it

For the compound `CC(=O)Oc1ccccc1C(=O)Nc1ncc([N+](=O)[O-])s1` [Nitazoxanide], the “number of TRAP^+ multinucleated cells” value in test [1] is recorded as “significantly decreased”; in the test on RAW264.7 cells (6.25 and 12.5 μM), “significantly decreased”; with RAW264.7 cells (NTZ 0, 6.25, 12.5, 25 μM), “decreased the number of TRAP^+ multinucleated cells in a dose-dependent manner”. The Kd at KLF5^K369Q protein turned out to be 5.4 µM; on KLF5^K369R protein, 7.3 µM. For the same compound, the “MMP9 protein expression (IHC)” value with MMP9 was “decrease of MMP9 protein expression”. The activity at 0.01 µM with PC-3-KQ cells (0.01 μM (first column so headed), secondary screening of 87 hit compounds (Table S1)) is 79.3%; with PC-3-KQ cells (0.01 μM (first column so headed), third screening of 25 hit compounds (Table S2)) it was 94.1%; in the test with PC-3-KQ cells (0.01 μM (second column so headed), secondary screening of 87 hit compounds (Table S1)), 79.5%; in the test on PC-3-KQ cells (0.01 μM (second column so headed), third screening of 25 hit compounds (Table S2)), 94.3%. Also, the activity at 0.1 µM with PC-3-KQ cells (setting [2]) came out at 45.6%; with PC-3-KQ cells (setting [3]) it was 44%. The results for the activity at 1 µM in the test on PC-3-KQ cells (setting [2]) and with PC-3-KQ cells (setting [3]) were 4.45% and 6.41%, respectively. In addition, the activity at 10 µM in the test on PC-3-KQ cells (setting [2]) is 3.4%; in the test with PC-3-KQ cells (setting [3]), 1.24%. In the test with PC-3-KQ cells (at 0.1 μM, read-out: inhibition of cell invasion), the inhibition at 0.1 µM is over 50%.

For the origin of these results see PMC9945734 (BMC Medicine, 2023).
